Experimental findings from patent US10718778B2, “Compositions and methods for detecting protein sulfenylation” (THE REGENTS OF THE UNIVERSITY OF MICHIGAN, priority 2014, dated 2020) are described below.

Series [1] deals with B-cell hybridomas. In words: ratiometric imaging of sulfenylation in live cells by TIRF microscopy. In kind it is cell-based. How it is done:
Next, whether DiNap-1F could be used for ratiometric imaging sulfenylation in live cells by Total Internal Reflectance Fluorescence (TIRF) microscopy was tested.

For series [2], the system named is live HEK293T cells. As to the kind of experiment: labeling of live HEK293T cells.

For `Nc1ccc2c3c(cccc13)C(=O)C(F)=C2O` [DiNap-1F], the “excitation ratio change over time” value in series [1] was “clearly elicited a robust excitation ratio change over time”. The cell permeability result in series [2] (live mammalian cells) was “validating cell permeability”. The “labeling of live mammalian cells” value in series [2] (time and concentration dependence) is listed as “labeled efficiently”.
